In the kinase profiling compilation of Christmann-Franck et al. (2016):

Columns and labels:
Test in all cases: radiometric filter-binding kinase assay, Kinase HotSpot
Conditions in all cases: compound 0.5 µM; ATP 10 µM
CDK7 CCNH MNAT1 (human) = CDK7 CCNH MNAT1 (human) (UniProt P50613+P51948+P51946)
CDK5 CDK5R1 p25 (human) = CDK5 CDK5R1 p25 (human) (UniProt Q00535+Q15078)
CDK9 CCNT1 (human) = CDK9 CCNT1 (human) (UniProt P50750+O60563)
CDK9 CCNK (human) = CDK9 CCNK (human) (UniProt O75909+P50750)
DYRK1B (human) = DYRK1B (human) (UniProt Q9Y463)
CDK1 CCNB1 (human) = CDK1 CCNB1 (human) (UniProt P06493+P14635)
CDK5 CDK5R1 p35 (human) = CDK5 CDK5R1 p35 (human) (UniProt Q00535+Q15078)
PRKCH (human) = PRKCH (human) (UniProt P24723)
CDK6 CCND3 (human) = CDK6 CCND3 (human) (UniProt P30281+Q00534)
CDK2 CCNA2 (human) = CDK2 CCNA2 (human) (UniProt P24941+P20248)
LTK (human) = LTK (human) (UniProt P29376)
CDK6 CCND1 (human) = CDK6 CCND1 (human) (UniProt Q00534+P24385)
CDK1 CCNA2 (human) = CDK1 CCNA2 (human) (UniProt P06493+P20248)
CDK4 CCND1 (human) = CDK4 CCND1 (human) (UniProt P24385+P11802)
STK33 (human) = STK33 (human) (UniProt Q9BYT3)
CDK3 CCNE1 (human) = CDK3 CCNE1 (human) (UniProt Q00526+P24864)
CDK2 CCNE1 (human) = CDK2 CCNE1 (human) (UniProt P24941+P24864)
MAP3K7 TAB1 (human) = MAP3K7 TAB1 (human) (UniProt O43318+Q15750)
CDK4 CCND3 (human) = CDK4 CCND3 (human) (UniProt P30281+P11802)
FYN (human) = FYN (human) (UniProt P06241)
CSNK1A1 (human) = CSNK1A1 (human) (UniProt P48729)

CDK3 CCNE1 (human), sequence (P24864 whole entry, looked up): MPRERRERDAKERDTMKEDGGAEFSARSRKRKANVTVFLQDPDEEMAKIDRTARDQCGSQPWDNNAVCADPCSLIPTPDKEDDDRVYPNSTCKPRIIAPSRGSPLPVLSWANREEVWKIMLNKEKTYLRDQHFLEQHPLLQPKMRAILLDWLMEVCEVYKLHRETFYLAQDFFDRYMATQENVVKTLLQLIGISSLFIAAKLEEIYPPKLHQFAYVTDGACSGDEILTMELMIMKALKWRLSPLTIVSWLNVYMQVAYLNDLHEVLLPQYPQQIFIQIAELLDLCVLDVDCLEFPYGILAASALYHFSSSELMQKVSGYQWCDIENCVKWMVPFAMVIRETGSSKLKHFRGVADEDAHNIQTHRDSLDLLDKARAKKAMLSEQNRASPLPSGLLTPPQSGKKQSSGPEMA
CDK3 CCNE1 (human), sequence (Q00526 whole entry, looked up): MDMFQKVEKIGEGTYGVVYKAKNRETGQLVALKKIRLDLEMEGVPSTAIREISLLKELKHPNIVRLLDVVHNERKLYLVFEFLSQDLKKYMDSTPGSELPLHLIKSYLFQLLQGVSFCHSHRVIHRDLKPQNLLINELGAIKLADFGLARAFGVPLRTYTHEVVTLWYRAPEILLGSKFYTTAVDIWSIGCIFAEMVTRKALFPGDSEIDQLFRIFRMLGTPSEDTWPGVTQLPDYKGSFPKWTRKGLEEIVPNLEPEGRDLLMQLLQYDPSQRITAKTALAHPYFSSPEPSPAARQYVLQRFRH
CDK2 CCNA2 (human), sequence (P20248 whole entry, looked up, other chains not shown): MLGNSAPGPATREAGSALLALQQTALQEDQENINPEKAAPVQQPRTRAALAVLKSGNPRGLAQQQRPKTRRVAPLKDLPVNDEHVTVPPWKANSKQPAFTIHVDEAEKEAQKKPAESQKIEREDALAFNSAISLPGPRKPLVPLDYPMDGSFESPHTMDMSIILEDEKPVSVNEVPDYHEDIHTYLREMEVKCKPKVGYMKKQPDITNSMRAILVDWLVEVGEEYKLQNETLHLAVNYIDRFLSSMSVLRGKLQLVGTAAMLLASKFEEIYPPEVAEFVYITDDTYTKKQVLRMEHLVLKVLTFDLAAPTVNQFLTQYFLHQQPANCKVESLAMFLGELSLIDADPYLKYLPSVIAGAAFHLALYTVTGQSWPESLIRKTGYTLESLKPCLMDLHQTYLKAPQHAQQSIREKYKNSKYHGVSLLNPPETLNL
CDK1 CCNA2 (human), sequence (P06493 whole entry, looked up): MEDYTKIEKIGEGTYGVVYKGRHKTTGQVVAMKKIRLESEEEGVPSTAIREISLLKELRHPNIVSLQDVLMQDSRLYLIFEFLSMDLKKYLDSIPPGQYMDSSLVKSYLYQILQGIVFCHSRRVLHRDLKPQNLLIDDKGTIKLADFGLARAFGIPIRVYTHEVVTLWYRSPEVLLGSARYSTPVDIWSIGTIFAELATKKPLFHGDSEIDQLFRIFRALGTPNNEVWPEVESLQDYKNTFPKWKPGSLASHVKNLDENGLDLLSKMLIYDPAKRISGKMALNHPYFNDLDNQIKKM
CDK1 CCNA2 (human), sequence (P20248 whole entry, looked up): as the sequence (P20248 whole entry, looked up, other chains not shown) above
CDK1 CCNB1 (human), sequence (P06493 whole entry, looked up): as the sequence (P06493 whole entry, looked up) above
CDK1 CCNB1 (human), sequence (P14635 whole entry, looked up): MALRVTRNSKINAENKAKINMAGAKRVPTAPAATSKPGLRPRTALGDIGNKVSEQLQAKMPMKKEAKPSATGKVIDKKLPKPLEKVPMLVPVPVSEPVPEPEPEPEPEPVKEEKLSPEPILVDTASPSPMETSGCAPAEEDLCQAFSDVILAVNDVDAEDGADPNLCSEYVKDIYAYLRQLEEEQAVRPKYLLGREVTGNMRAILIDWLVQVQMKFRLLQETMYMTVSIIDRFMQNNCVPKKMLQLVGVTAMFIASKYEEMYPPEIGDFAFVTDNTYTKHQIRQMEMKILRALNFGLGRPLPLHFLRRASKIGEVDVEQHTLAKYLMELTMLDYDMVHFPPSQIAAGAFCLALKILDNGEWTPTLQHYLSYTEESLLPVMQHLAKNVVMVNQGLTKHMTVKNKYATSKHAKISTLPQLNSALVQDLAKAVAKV
PRKCH (human), sequence (P24723 whole entry, looked up): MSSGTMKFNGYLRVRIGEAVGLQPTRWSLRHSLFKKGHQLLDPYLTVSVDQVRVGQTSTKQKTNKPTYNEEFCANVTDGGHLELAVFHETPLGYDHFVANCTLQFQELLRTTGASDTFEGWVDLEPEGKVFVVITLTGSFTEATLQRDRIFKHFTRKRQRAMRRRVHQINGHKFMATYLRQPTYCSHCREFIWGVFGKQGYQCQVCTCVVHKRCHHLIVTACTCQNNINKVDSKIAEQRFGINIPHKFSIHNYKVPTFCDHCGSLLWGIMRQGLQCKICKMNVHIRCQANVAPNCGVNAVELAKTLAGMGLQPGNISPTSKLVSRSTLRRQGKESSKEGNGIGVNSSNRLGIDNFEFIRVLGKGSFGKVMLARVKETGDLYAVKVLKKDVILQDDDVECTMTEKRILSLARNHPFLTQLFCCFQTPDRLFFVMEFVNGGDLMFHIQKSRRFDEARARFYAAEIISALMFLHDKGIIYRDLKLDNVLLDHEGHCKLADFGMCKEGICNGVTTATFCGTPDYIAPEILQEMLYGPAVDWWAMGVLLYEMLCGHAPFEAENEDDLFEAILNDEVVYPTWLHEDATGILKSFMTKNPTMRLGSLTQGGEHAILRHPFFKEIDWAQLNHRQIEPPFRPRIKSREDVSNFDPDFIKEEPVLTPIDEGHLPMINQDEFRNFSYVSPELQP
DYRK1B (human), sequence (Q9Y463 whole entry, looked up): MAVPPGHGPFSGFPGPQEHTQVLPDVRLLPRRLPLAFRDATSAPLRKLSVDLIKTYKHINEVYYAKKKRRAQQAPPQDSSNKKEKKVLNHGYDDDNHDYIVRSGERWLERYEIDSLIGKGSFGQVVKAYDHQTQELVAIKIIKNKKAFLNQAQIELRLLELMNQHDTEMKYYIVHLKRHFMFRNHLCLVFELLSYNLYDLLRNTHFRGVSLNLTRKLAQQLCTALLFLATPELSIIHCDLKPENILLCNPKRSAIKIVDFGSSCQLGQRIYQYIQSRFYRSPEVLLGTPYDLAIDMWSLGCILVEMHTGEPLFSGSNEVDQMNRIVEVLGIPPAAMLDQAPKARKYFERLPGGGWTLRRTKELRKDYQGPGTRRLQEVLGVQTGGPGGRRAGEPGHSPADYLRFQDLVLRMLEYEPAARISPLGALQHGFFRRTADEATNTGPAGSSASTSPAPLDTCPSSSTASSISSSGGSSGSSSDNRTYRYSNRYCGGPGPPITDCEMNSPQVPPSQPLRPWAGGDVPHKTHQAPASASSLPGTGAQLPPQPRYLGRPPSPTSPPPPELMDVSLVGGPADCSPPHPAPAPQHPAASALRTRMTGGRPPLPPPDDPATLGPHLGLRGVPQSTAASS
STK33 (human), sequence (Q9BYT3 whole entry, looked up): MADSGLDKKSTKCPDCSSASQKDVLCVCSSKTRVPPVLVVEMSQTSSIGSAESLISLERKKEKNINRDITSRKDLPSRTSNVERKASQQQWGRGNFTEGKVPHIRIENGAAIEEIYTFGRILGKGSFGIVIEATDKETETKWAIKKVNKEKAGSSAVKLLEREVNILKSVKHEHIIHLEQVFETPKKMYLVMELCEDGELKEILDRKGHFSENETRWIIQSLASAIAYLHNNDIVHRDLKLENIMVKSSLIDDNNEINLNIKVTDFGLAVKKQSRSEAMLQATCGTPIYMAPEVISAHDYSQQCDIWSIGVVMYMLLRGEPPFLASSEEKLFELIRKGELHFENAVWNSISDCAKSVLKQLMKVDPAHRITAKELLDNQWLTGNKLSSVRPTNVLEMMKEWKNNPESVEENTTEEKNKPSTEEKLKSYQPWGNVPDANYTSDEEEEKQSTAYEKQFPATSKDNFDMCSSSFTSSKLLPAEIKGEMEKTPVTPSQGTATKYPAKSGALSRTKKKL
LTK (human), sequence (P29376 whole entry, looked up): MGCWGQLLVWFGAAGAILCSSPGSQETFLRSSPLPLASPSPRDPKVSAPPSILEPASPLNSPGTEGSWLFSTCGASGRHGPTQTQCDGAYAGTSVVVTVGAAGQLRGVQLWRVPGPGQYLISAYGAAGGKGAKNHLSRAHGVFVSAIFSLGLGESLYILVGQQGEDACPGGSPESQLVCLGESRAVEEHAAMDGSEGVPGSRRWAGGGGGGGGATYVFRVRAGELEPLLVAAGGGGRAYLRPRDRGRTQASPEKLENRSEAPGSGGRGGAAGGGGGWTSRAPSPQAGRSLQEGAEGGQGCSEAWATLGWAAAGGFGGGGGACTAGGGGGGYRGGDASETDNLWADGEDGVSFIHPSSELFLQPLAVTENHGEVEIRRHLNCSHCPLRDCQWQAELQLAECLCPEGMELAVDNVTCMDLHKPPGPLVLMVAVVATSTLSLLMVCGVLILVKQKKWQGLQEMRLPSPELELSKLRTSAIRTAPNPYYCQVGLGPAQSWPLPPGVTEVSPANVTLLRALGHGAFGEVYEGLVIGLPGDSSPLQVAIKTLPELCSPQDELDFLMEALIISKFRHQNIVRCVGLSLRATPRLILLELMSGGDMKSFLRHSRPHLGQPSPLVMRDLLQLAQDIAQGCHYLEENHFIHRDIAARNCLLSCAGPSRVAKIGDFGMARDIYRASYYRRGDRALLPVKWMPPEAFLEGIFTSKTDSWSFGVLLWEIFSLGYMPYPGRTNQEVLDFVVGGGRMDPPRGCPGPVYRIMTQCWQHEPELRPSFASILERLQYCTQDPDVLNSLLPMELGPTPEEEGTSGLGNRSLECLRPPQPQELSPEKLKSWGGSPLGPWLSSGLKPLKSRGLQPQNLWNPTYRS
CDK2 CCNE1 (human), sequence (P24864 whole entry, looked up, other chains not shown): as the sequence (P24864 whole entry, looked up) above

Structure (SMILES) | residual activity (CDK7 CCNH MNAT1 (human)) | residual activity (CDK5 CDK5R1 p25 (human)) | residual activity (CDK9 CCNT1 (human)) | residual activity (CDK9 CCNK (human)) | residual activity (DYRK1B (human)) | residual activity (CDK1 CCNB1 (human)) | residual activity (CDK5 CDK5R1 p35 (human)) | residual activity (PRKCH (human)) | residual activity (CDK6 CCND3 (human)) | residual activity (CDK2 CCNA2 (human)) | residual activity (LTK (human)) | residual activity (CDK6 CCND1 (human)) | residual activity (CDK1 CCNA2 (human)) | residual activity (CDK4 CCND1 (human)) | residual activity (STK33 (human)) | residual activity (CDK3 CCNE1 (human)) | residual activity (CDK2 CCNE1 (human)) | residual activity (CDK4 CCND3 (human)) | other results
c1cc(-c2cnn3cc(-c4ccc(OCCN5CCCCC5)cc4)cnc23)ccn1 | 83.7% | 68.2% | 65% | 36.7% | 26.2% | 79.3% | 67.7% | 95% | 14.8% | 87.7% | 95.4% | 21.2% | 92.2% | 35.3% | 37.4% | 89.9% | 77.5% | 60.7% | residual activity (MAP3K7 TAB1 (human)): 49.7%
NC(=O)c1ccc2[nH]c(-c3ccc(Oc4ccc(Cl)cc4)cc3)nc2c1 |  |  |  |  |  |  |  | 93.4% |  |  |  |  |  |  |  |  |  |  | 
COc1cc(OC)c(/C=C2\C(=O)Nc3ccccc32)c(OC)c1 |  |  |  |  | 99% | 83% |  | 82.2% |  | 96.3% | 95.3% |  | 103% |  | 89.5% |  |  |  | residual activity (FYN (human)): 100%; residual activity (CSNK1A1 (human)): 59.6%
NC(=O)Nc1sc(-c2ccc(F)cc2)cc1C(N)=O |  |  |  |  |  |  |  | 83.5% |  |  |  |  |  |  |  |  |  |  | 
Cc1ccc(NC(=O)c2ccc(CN3CCN(C)CC3)cc2)cc1Nc1nccc(-c2cccnc2)n1 | 101% | 98.1% | 100% | 103% | 97.9% | 103% | 103% |  | 103% |  | 100% | 99% |  | 97.5% |  | 97.5% |  | 107% | 
O=C1c2ccccc2-[n+]2ccc3c([nH]c4ccccc43)c21 |  |  |  |  | 98.7% |  |  | 87.1% |  | 72.4% | 121% |  | 68% |  | 101% | 80.1% | 80.3% |  | 
